Patent US5602259A, “Method for producing 4-hydroxy-5-methyl-3[2H]-furanone and uses of same” (priority 1993, dated 1997)

Columns and labels:
[1] = in vitro; format: cell-based; conditions: fibroblast cells
Excerpt: (§1) 4-hydroxy-5-methyl-3[2H]-furanone obtained by the method of the invention has an excellent activity to inhibit melanin formation.

[2] = Anti-oxidation activity (1): inhibition of autonomous oxidation of linolenic acid, absorbance at 500 nm; format: biochemical; conditions: for concentration showing 90% inhibition of autonomous oxidation of linolenic acid: pH 7.4, 37° C., 24 hours, for the extract: concentration of 4-hydroxy-5-methyl-3[2H]-furanone
Method: (§2) An anti-oxidation activity of 4-hydroxy-5-methyl-3[2H]-furanone was examined as follows:
To 1.0 ml of 0.2M potassium phosphate buffer(pH 7.4) containing 2 mg/ml of linolenic acid and 10 mg/ml of Tween-20 was added the extract obtained from Lichrosorb RP-18 column in Example 1, which contains a serial concentrations of 10~2000 ppm of 4-hydroxy-5-methyl-3[2H]-furanone. […] The resulting mixture was allowed at 37° C. for 24 hours. 0.1 ml of the reaction mixture was taken and diluted with 9.7 ml of ethanol. 0.1 ml of 30% ammonium thiocyanide and 0.1 ml of a mixture of 5% ferrous ammonium sulfate and 3.5% […] were added, and 3 minutes later, an absorbance at 500 nm was measured to evaluate an automatic oxidation of fatty acid.

[3] = Anti-oxidation activity (2): prevention of oxidation of unsaturated fatty acid over time (FIG. 5); format: biochemical; conditions: 200 ppm, 37° C., pH 7.4
Method: as §2
1.0 ml of 0.2M potassium phosphate buffer(pH 7.4) containing 2mg/ml of linolenic acid, 10 mg/ml of Tween-20 and 200 ppm of L-ascorbic acid, tocopherol or 4-hydroxy-5-methyl-3[2H]-furanone was allowed to stand at 37° C. for 24 hours. For a control, 1.0 ml of 0.2M potassium phosphate buffer(pH 7.4) containing 2 mg/ml of linolenic acid and 10 mg/ml of Tween-20 was employed.
The same procedure as that of Experimental Example 2 was carried out to evaluate the anti-oxidation activity of test compounds.
In FIG. 5, the longitudinal axis indicates an amount of fatty peroxide represented by an absorbance at 500 nm and the horizontal axis indicates the time in days.

[4] = system: murine melanoma cells; assay: Inhibitive effect on melanin formation in melanoma cells; format: cell-based; conditions: Mus musculus, 48 h, 37° C., by observing the color of the cells, read-out: concentration with inhibitive effect on melanin formation within melanoma cells
Method: as §1
To a T-shaped flask containing […] of Eagle's medium containing 10% fetal calf essential medium was added murine melanoma cells in an amount of 5×10^4 cells/30 ml. […] After the cultivation, the cells were collected and examined for melanin formation of the cells by observing the color of the cells.

[5] = biological target: T1, tyrosinase (Agaricus bisporus, UniProt C7FF04); assay: Tyrosinase-inhibiting action; format: biochemical; conditions: pH 6.8, 37° C., 10 minutes, tyrosine substrate
T1 construct: purchased SIGMA
T1 sequence (C7FF04 2-392 limits assumed): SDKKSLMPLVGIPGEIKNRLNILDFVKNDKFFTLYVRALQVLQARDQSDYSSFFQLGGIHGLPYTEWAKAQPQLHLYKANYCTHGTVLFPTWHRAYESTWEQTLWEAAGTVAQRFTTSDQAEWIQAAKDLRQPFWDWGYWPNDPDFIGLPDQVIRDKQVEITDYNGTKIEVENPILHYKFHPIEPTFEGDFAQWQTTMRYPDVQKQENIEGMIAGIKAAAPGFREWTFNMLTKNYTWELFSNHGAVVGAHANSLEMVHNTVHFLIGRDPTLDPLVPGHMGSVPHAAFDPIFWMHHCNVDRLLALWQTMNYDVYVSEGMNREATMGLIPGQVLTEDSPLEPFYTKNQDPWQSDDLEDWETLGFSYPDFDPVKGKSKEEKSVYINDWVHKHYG
Method: As an enzyme, tyrosinase purchased from SIGMA was used. […] Water were used to dilute the test compounds. As a control, 0.9 ml of 1:1 mixture of ethanol and water was used. […] The test tube was quickly cooled in an ice water bath to stop the reaction, and the absorbance was measured at 475 nm. The tyrosinase-inhibitory activities of the test compounds were calculated by using the following equation: [formula] From the inhibitions(%) of a series of dilutions of test compounds, IC50, i.e., the concentration of test compound which inhibit tyrosinase by 50% was calculated for each test compound.

Row | MCC at 48 h [1] | IC50 [5] | Structure (SMILES) | concentration showing 90% inhibition of autonomous oxidation of linolenic acid [2] | anti-oxidation activity (in words) ([2]; compared with maltol, kojic acid or L-ascorbic acid) | prevention of oxidation of unsaturated fatty acid (in words) [3] | minimal effective concentration [4]
1 | 50 µg/mL | – | O=C1O[C@H]([C@@H](O)CO)C(O)=C1O [ascorbic acid, L-ascorbic acid] | – | – | – | –
2 | – | – | Cc1occc(=O)c1O [maltol] | 460 ppm | – | – | –
3 | > 500 µg/mL | – | O=c1cc(CO)occ1O [kojic acid] | 600 ppm | – | – | –
4 | > 500 µg/mL | 52.6 µM | CC1=C(O)C(=O)CO1 [4-hydroxy-5-methyl-3[2H]-furanone] | – | superior over maltol, kojic acid or L-ascorbic acid | can prevent more efficiently the oxidation of unsaturated fatty acid than the same amount of L-ascorbic acid or α-tocopherol | 10 to 20 µg/mL
